From the RepoRT retention time repository (doi:10.1021/acs.analchem.7b00925)

Test: HILIC, Merck SeQuant ZIC-HILIC, 100 × 2.1 mm, 3.5 µm, 25 °C, 0.3 mL/min, estimated dead time 0.73 min; A: water + 0.1% formic acid, pH 3; B: acetonitrile + 0.1% formic acid, pH 3; gradient (min/%B) 0/95 1.5/95 13.5/40 15.5/40 29.7/25 33.5/25 34.5/95 41.5/95
Conditions: stereoisomer not certain

Structure (SMILES) | LC retention time [min]
CN[C@H](CC(=O)O)C(=O)O [N-methyl-D-aspartic acid] | 7.39
O=C(O)CNC(=O)C1CCCN1 (configuration not stated) [Proline-glycine] | 7.71
NC(=O)CCC(NC(=O)Cc1ccccc1)C(=O)O (configuration not stated) [Phenylacetylglutamine] | 2.63
O=C(O)CNC(=O)c1ccccc1O [o-Hydroxyhippuric acid] | 1.44
CC(CCC(=O)[O-])[N+](C)(C)C (configuration not stated) [4-aminovaleric acid betaine] | 5.95
O=C1CC(C(=O)O)NC(=O)N1 (configuration not stated) [Dihydroorotic acid] | 4.02
C[N+](C)(C)[C@@H](Cc1ccccc1)C(=O)[O-] [Phenylalanine betaine] | 5.5
O=C(O)CNC(=O)C1CCC(=O)N1 (configuration not stated) [Pyroglutamylglycine] | 4.32
C=C(OP(=O)(O)O)C(=O)[O-] [Phosphoenol pyruvate] | 6.22
NCCc1cc(O)c(O)cc1O [Hydroxydopamine] | 9.19
O=C(O)Cc1ccccn1 [2-Pyridylacetic acid] | 4.67
CC(C(=O)[O-])[N+](C)(C)C (configuration not stated) [Alanine betaine] | 7.32
COC(=O)c1nccnc1N [Methyl 3-aminopyrazine-2-carboxylic acid] | 1.05
Nc1ccc(C(=O)O)cc1 [p-Aminobenzoic acid] | 1.53
NC(Cc1ccc(O)c([N+](=O)[O-])c1)C(=O)O (configuration not stated) [Nitrotyrosine] | 6.1
CNC(=O)c1cccnc1 [N-Methylnicotinamide] | 2.26
O=S(=O)(O)CCN1CCN(CCO)CC1 [HEPES] | 10.7
NCC(=O)CCC(=O)O [5-aminolevulinic acid] | 8.57
CC1=NCCC(C(=O)O)N1 (configuration not stated) [Ectoine] | 6.85
N[C@H]1C(O)O[C@H](COP(=O)(O)O)[C@@H](O)[C@@H]1O (stereo partly drawn) [D-glucosamine-6-phosphate] | 10
NC(CCCCNC(CCC(=O)O)C(=O)O)C(=O)O (configuration not stated) [Saccharopine] | 10.1
CC(N)C(=O)O (configuration not stated) [Alanine] | 8.06
CSCCC(NC=O)C(=O)O (configuration not stated) [N-formylmethionine] | 1.85
O=C(O)c1ccccc1C(=O)O [Phthalic acid] | 2.12
NC(N)=NCCC[C@H](N)C(=O)O [L-Arginine] | 12.2
O=C(O)Cc1cccnc1 [3-Pyridylacetic acid] | 5.94

Structure (SMILES) | LC retention time [min]
Nc1ccccc1O [2-Aminophenol] | 6
CSCC1OC(n2cnc3c(N)ncnc32)C(O)C1O (configuration not stated) [Methylthioadenosine] | 4.81
O=C(O)Cn1ccnc1 [1-Imidazoleacetic acid] | 7.7
C[N+](C)(C)CCOP(=O)(O)OP(=O)([O-])OCC1OC(n2ccc(N)nc2=O)C(O)C1O (configuration not stated) [Citicholine] | 10.6
[NH3+]CCCCCC(=O)[O-] [Aminocaproate] | 7.15
CC(=O)N[C@@H](CC(=O)O)C(=O)O [N-Acetyl-L-aspartic acid] | 4.31
O=c1[nH]c2ccccc2o1 [2-Benzoxazolinone] | 1.01
NC(CS)C(=O)O (configuration not stated) [Cysteine] | 7.62
NC(Cc1ccc(O)c(O)c1)C(=O)O (configuration not stated) [3,4-dihydroxyphenylalanine] | 8.17
O=C(O)Cc1c[nH]c2ccccc12 [3-Indoleacetic acid] | 1.26
CC(C)C(C(=O)O)[N+](C)(C)C (configuration not stated) [Valine betaine] | 5.99
O=C(O)C=C(CC(=O)O)C(=O)O [cis-aconitate] | 4.23
CC[C@H](C)[C@H](N)C(=O)O [L-Isoleucine] | 6.76
COc1cc(/C=C/C(=O)O)ccc1O [trans-Ferulic acid] | 1.39
Nc1nc2c(ncn2C2OC(COP(=O)(O)O)C(O)C2O)c(=O)[nH]1 (configuration not stated) [Guanosine mono-phosphate] | 8.15
O=C(O)C=Cc1cnc[nH]1 [cis-urocanic acid] | 5
O=c1cc[nH]c(=S)[nH]1 [Thiouracil] | 1.93
NC(COCc1ccccc1)C(=O)O (configuration not stated) [Benzylserine] | 5.46
OCC(O)C(O)CO (configuration not stated) [Erythritol] | 5.11
C[n+]1cccc(C(=O)[O-])c1 [Trigonelline] | 7.26
Cn1cncc1CC(N)C(=O)O (configuration not stated) [3-methylhistidine] | 12
NC(CSS(=O)(=O)O)C(=O)O (configuration not stated) [Cysteine-S-sulfate] | 7.64
NCCS(=O)O [Hypotaurine] | 7.87
Cc1ncc(CO)c(CO)c1O [Pyridoxine] | 7.08
CCCC(C(=O)[O-])[N+](C)(C)C (configuration not stated) [Norvaline betaine] | 6.15
OCC1OC(O)C(O)C1O (configuration not stated) [Ribose] | 5
